Experimental data taken from patent publication US20170190705A1, “Compositions and Methods for Inhibiting BMP” (THE BRIGHAM AND WOMAN'S HOSPITAL, INC., priority 2014, published 2017).
pIC50: −log10 of the molar value. Read-outs that look alike come from different tables or passages of the source.

Columns and labels:
PIM3 = PIM3 (Homo sapiens, UniProt Q86V86); assay: Kinome profiling PIM3; format: biochemical; conditions: read-out: Inhibitory activity PIM3; for inhibition at 0.1 µM: 100 nM
Description: (§1) . The kinome-wide selectivity was determined following the methods previously reported by Mohedas et al., ACS Chem Biol 2013, 8, 1291-1302 and Sanvitale et al., PLoS One 2013, 8, e62721.

MUSK = target: T1, MUSK (Homo sapiens, UniProt O15146); assay: Kinome profiling MUSK; format: biochemical; conditions: read-out: Inhibitory activity MUSK; for inhibition at 0.1 µM: 100 nM
T1 sequence (O15146 24-869): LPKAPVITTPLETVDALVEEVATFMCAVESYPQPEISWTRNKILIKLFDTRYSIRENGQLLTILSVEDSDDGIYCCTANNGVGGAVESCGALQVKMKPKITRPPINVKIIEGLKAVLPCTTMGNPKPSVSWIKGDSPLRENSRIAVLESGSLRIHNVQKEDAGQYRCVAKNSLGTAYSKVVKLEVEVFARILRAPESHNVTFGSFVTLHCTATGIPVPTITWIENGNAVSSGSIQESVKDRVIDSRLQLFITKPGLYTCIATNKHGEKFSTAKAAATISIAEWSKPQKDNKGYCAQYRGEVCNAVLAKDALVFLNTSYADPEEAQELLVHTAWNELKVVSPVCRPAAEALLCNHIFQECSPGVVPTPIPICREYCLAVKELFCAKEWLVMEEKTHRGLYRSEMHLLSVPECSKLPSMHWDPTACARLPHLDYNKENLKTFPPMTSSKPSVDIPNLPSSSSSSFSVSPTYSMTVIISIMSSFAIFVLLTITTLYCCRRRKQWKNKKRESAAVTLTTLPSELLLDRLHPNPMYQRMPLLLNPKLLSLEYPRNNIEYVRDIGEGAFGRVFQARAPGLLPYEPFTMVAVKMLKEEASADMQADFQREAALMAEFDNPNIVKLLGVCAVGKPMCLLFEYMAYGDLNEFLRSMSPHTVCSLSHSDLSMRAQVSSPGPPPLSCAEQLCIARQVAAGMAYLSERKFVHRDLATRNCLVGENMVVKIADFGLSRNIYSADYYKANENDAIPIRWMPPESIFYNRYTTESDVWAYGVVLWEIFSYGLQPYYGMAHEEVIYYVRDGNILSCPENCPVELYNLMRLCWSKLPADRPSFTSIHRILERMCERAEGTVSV
Description: as §1

PKC-θ = PKC-θ (Homo sapiens, UniProt Q04759); assay: Kinome profiling PKC-θ; format: biochemical; conditions: read-out: Inhibitory activity PKC-θ; for inhibition at 0.1 µM: 100 nM
PKC-θ, sequence (Q04759 whole entry): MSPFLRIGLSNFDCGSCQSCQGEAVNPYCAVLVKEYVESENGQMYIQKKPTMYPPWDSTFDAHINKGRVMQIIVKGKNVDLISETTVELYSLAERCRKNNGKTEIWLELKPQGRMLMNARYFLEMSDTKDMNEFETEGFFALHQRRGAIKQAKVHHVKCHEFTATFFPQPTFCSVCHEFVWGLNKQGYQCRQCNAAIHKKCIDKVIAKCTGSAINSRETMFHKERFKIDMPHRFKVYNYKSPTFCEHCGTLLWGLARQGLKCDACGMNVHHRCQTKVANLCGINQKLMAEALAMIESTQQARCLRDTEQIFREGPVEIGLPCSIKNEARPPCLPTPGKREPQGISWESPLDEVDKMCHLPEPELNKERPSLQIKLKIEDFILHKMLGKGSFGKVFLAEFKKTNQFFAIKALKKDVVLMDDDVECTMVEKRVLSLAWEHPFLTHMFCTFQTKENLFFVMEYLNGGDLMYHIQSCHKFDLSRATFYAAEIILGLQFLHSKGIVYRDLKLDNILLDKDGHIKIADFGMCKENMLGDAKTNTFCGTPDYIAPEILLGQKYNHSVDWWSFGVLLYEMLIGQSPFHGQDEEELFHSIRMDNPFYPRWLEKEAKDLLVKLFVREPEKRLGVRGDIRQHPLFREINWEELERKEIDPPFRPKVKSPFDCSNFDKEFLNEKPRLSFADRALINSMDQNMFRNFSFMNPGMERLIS
Description: as §1

caALK3 = target: T2, caALK3 (Homo sapiens, UniProt P36894, Q233D); assay: Luciferase reporter assay constitutively active ALK3; conditions: read-out: Cell Based Assay caALK3 IC50
T2 construct: expressed in transfected cells; host or cells: C2C12 BRE-Luc cells infected with adenovirus (MOI 100)
T2 sequence (P36894 24-532 Q233D): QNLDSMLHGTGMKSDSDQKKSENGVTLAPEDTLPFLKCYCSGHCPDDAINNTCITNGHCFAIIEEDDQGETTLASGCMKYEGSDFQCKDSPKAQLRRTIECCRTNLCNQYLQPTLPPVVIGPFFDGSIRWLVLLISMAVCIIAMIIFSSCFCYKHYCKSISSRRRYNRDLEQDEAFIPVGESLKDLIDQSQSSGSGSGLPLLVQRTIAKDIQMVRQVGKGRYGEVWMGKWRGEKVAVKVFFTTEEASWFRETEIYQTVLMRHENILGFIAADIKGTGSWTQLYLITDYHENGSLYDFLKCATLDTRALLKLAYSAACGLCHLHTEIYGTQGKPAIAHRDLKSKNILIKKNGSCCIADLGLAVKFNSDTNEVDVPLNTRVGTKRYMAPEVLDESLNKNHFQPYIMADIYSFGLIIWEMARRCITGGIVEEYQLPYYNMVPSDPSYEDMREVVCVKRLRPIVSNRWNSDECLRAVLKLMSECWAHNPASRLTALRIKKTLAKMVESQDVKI
Excerpt: C2Cl2 […] cells stably transfected with BMP responsive element from the Id promoter fused to luciferase reporter gene (BRE-Luc) were generously provided by Dr. Peter ten Dijke (Leiden University Medical Center, NL) following the methods described by Zilberberg et al., BMC cell biology 2007, 8, 41-50. Human embryonic kidney 293T cells stably transfected with the TGF-β responsive element from the PAI-1 promoter fused to luciferase reporter gene (CAGA-Luc) were generously provided by Dr. Howard Weiner (Brigham and Women's Hospital, Boston, Mass.) following the methods described by Oida et al., PloS one 2011, 6, e18365. C2Cl2 Bre-Luc and 293T CAGA-Luc cells were seeded in DMEM supplemented with 2% FBS at 20,000 cells per well in tissue culture treated 96-well plates (Costar® 3610; Corning). The cells were incubated for 1 h (37° C. and 10% CO2) and allowed to settle and attach. Compounds of interest or DMSO were diluted in DMEM and added at final compound concentrations of 1 nM to 10 μM. Cells were then incubated for 30 min. Adenovirus expressing constitutively active BMP and TGF-β type I receptors (Ad.caALK1-5), generously provided by Dr. Akiko Hata (University of to California at San Francisco), were added to achieve a multiplicity of infection (MOI) of 100. Plates were incubated overnight at 37° C. Cell viability was assayed with an MIT (3-(4,5-dimethylthiazol-2-yl)-2,5-diphenyl tetrazolium bromide) colorimetric assay (Promega) per the manufacturer's instructions. Media was discarded, and firefly luciferase activity was measured (Promega) according to manufacturer's protocol. Light output was measured using a Spectramax L luminometer (Molecular Devices) with an integration time of one second per well. Data was normalized to 100% of incremental BRE-Luc activity due to adenoviruses specifying caALK1, 2, or 3, or the incremental CAGA-Luc activity due to adenoviruses specifying caALK4 or 5.

MAP4K2 = target: T3, MAP4K2 (Homo sapiens, UniProt Q12851); assay: Kinome profiling MAP4K2; format: biochemical; conditions: for inhibition at 0.1 µM: 100 nM
T3 sequence (Q12851 1-820): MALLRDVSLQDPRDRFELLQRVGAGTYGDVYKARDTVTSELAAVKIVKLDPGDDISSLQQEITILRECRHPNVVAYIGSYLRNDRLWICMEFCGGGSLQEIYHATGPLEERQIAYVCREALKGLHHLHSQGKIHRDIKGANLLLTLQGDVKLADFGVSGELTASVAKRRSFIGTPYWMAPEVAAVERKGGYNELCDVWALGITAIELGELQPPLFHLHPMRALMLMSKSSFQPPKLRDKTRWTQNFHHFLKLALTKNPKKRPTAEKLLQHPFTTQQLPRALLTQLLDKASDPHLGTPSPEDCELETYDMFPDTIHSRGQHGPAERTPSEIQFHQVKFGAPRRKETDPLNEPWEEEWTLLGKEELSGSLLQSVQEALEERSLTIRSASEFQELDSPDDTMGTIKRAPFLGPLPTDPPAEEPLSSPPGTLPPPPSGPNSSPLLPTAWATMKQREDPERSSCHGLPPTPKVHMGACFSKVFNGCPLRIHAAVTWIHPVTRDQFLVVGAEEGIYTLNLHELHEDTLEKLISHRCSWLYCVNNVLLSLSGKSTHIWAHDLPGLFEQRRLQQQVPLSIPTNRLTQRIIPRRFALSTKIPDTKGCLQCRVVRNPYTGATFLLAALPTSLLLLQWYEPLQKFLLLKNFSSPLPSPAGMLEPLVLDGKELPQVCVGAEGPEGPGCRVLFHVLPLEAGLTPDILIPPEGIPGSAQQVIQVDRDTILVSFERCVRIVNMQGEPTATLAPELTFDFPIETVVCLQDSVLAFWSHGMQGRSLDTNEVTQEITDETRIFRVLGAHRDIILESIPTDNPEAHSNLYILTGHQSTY
Description: as §1

[1] = Table 4, read-out: Inhibitory Activity MAP4K2
[2] = read-out: Inhibitory activity MAP4K2

| Structure (SMILES) | inhibition at 0.1 µM (PIM3) | inhibition at 1 µM (PIM3) | inhibition at 0.1 µM (MUSK) | inhibition at 1 µM (MUSK) | inhibition at 0.1 µM (PKC-θ) | inhibition at 1 µM (PKC-θ) | pIC50 (caALK3) | inhibition at 0.1 µM (MAP4K2; [1]) | inhibition at 0.1 µM (MAP4K2; [2]) | inhibition at 1 µM (MAP4K2; [1]) | inhibition at 1 µM (MAP4K2; [2]) |
| --- | --- | --- | --- | --- | --- | --- | --- | --- | --- | --- | --- |
| COc1cc(-c2cc(-c3ccc(N4CCNCC4)cc3)cnc2C)cc(OC)c1OC [Compound 10, 1-(4-(6-methyl-5-(3,4,5-trimethoxyphenyl)pyridin-3-yl)phenyl)piperazine] | 3% | 4% | 2% | 2% | 1% | 2% | 6.42 | 16% | 16% | 61% | 61% |
| COc1cc(-c2cc(-c3ccc(N4CCNCC4)cc3)cnc2N)cc(OC)c1OC [Compound 15, 5-(4-(piperazin-1-yl)phenyl)-3-(3,4,5-trimethoxyphenyl)pyridin-2-amine] | 1% | -1% | 1% | 5% | 1% | 1% | 8.10 |  | 36% |  | 77% |
